Results: paper PMC6376136, “Impact of lipid binding on the tertiary structure and allergenic potential of Jug r 3, the non-specific lipid transfer protein from walnut” (Scientific Reports, 2019)

Biological target: T1, Jug r 3 (Juglans regia, UniProt C5H617)
T1 construct: mature protein, secreted from Pichia pastoris GS115 (pPICZalphaA), signal peptide removed; four extra N-terminal residues EAEF; monomer
T1 sequence (C5H617 27-119): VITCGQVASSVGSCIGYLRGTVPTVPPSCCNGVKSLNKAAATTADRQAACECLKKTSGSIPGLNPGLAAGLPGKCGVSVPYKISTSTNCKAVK
Assay: ANS fluorescence displacement
Type: binding
Conditions: 10 uM protein, 10 uM ANS, protein:ligand 1:10 (100 uM ligand), overnight at 4 °C

## CCCCCCCC/C=C\CCCCCCCC(=O)O [OLE, oleate]
  % reduction of ANS fluorescence at protein:ligand 1:10: 31%
